According to US20230302164A1, “PSMA-Targeting Ligands With Optimal Properties for Imaging and Therapy” (Wisconsin Alumni Research Foundation, priority 2021, published 2023):
Like-named read-outs stand apart in the source and are kept apart here.

Columns and labels:
[1] = Partition (logP) and distribution (logD) coefficients, hydrophobicity comparison; assay type: physicochemical; conditions: for LogD: distribution coefficient; for LogD / LogP: 177Lu-labeled compound; for LogP: partition coefficient
[2] = target: T1, PSMA (LNCap cells, PSMA positive) (Homo sapiens, UniProt Q04609); assay: Competitive binding assay in LNCap cells using 86Y as a radioligand; conditions: 86Y radioligand, read-out: half inhibition concentration (IC50)
T1 construct: endogenous in cells; host or cells: LNCap cells (human prostate adenocarcinoma)
Experimental: Competitive binding assays were performed in LNCap cells (PSMA positive, androgen-sensitive human prostate adenocarcinoma cells) using ^86Y as a radioligand.

[3] = PET/CT imaging in normal ICR mice, blood kinetics by region of interest analysis of the heart; assay type: in vivo; conditions: i.v., PET days 0-2
Experimental: Compounds PSMA-C12 and PSMA-PhC18 were dissolved in water at a concentration of 1-2 mg/mL. Radiolabeling with Y-86 was carried out in NaOAc buffer (pH 5.0) at 90-95 C for 30 min to 1 h at constant stirring. Ten micrograms of compound per mCi of ^86Y were employed, affording quantitative radiochemical yields. Purification of the compounds was carried out using reverse-phase solid-phase chromatography and purified compounds were redissolved in physiological injection media (e.g., normal saline). Quality control was conducted using reverse-phase HPLC.
In PET/CT imaging studies, 100-250 µCi of ^86Y-PSMA-C12 and ^86Y-PSMA-PhC18 were intravenously administered into normal ICR mice, and mice were scanned on days 0, 1, and 2 after injection. The results are shown in FIG. 1 (for ^86Y-PSMA-C12) and in FIG. 2 (for ^86Y-PSMA-PhC18). Blood circulation kinetics were analyzed through a region of interest analysis of the heart.
To our knowledge, ^86Y-PSMA-PhC18 is the only PSMA inhibitor showing long circulation without albumin binding, and that has predominantly hepatic excretion. These features have clear advantages over other previously known PSMA ligands for prostate cancer theranostics.

PC3-PIP tumor xenografts [4] = assay: Ex vivo biodistribution in PC3-PIP mice after last imaging timepoint; conditions: 24 h p.i. (617, C12) or 72 h p.i. (PhC18)
Experimental: Next, an ex vivo biodistribution analysis was performed following the last imaging timepoint at 24 h p.i. for PC3-PIP mice injected intravenously with ^86Y-PSMA-617 and ^86Y-PSMA-C12 and at 72 h p.i. in mice administered ^86Y-PSMA-PhC18.

[5] = system: LNCap tumor xenografts with lower PSMA expression; assay: PET/CT imaging and region of interest analysis in nude mice bearing LNCap tumor xenografts; assay type: in vivo
Experimental: Next, PET/CT imaging studies were performed in nude mice bearing LNCap tumor xenografts with lower PSMA expression. The mice were injected intravenously with ^86Y-PSMA-617, ^86Y-PSMA-C12, or ^86Y-PSMA-PhC18 and scanned up to 72 h p.i. […] Finally, a region of interest analysis was then performed on the PET/CT images in nude mice bearing LNCap tumor xenografts injected intravenously with ^86Y-PSMA-617, ^86Y-PSMA-C12, or ^86Y-PSMA-PhC18 and scanned up to 72 h post injection.

PC3-PIP tumor xenografts [6] = assay: PET/CT imaging and region of interest analysis in nude mice bearing PC3-PIP tumor xenografts; assay type: in vivo
Experimental: Next, PET/CT imaging studies were performed in nude mice bearing PC3-PIP tumor xenografts ([…] tumors) injected intravenously with ^86Y-PSMA-617, ^86Y-PSMA-C12, or ^86Y-PSMA-PhC18 and scanned up to 72 h post injection.
A region of interest analysis was then performed on the PC3-PIP tumor xenografts injected intravenously with ^86Y-PSMA-617, ^86Y-PSMA-C12, or ^86Y-PSMA-PhC18 and scanned up to 72 h post injection.

[7] = nude mice, i.v., scanned up to 72 h
[8] = nude mice, region of interest analysis

T1 sequence (Q04609 whole entry): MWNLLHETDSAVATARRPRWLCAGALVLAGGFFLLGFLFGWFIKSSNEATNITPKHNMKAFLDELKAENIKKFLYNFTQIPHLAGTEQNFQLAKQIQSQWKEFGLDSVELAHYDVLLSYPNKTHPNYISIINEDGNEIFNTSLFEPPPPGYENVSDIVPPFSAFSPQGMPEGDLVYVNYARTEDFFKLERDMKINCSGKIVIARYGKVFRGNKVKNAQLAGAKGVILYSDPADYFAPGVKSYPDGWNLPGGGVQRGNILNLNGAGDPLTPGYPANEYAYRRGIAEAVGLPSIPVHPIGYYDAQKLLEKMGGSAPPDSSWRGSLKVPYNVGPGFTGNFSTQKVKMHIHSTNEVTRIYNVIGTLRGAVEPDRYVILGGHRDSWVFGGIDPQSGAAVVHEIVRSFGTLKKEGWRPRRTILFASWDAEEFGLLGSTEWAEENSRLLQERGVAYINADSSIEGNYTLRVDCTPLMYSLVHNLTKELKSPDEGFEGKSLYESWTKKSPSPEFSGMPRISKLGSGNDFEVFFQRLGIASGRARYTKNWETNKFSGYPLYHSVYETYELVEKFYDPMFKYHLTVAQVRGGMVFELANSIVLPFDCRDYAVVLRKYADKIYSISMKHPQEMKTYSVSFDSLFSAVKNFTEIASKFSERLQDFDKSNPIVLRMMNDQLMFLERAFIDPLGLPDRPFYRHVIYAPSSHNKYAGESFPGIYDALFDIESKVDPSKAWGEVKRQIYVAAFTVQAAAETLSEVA

Structure (SMILES): O=C(O)CCC(NC(=O)NC(CCCCNC(=O)CCCCCCCCCCCNC(=O)CN1CCN(CC(=O)O)CCN(CC(=O)O)CCN(CC(=O)O)CC1)C(=O)O)C(=O)O (stereo not drawn) [^177Lu-PSMA-C12, metal not drawn]
- LogD ([1]; read-out: LogD): -2.9
- LogP ([1]; read-out: LogP): -2.6

Structure (SMILES): O=C(O)CCC(NC(=O)NC(CCCCNC(=O)CCCCCCCCCCCNC(=O)CN1CCN(CC(=O)O)CCN(CC(=O)O)CCN(CC(=O)O)CC1)C(=O)O)C(=O)O (stereo not drawn) [^86Y-PSMA-C12, metal not drawn]
- IC50 [2]: 58.2 nM
- blood circulation [3]: short circulation half-life
- excretion route [3]: renal excretion
- tissue with highest uptake in ex vivo biodistribution (PC3-PIP tumor xenografts [4]): the tumor shows the highest uptake of all analysed tissues

Structure (SMILES): O=C([O-])CN1CCN(CC(=O)[O-])CCN(CC(=O)NCC2CCC(C(=O)N[C@@H](Cc3ccc4ccccc4c3)C(=O)NCCCC[C@H](NC(=O)N[C@@H](CCC(=O)O)C(=O)O)C(=O)O)CC2)CCN(CC(=O)[O-])CC1.[177Lu+3] (stereo partly drawn) [^177Lu-PSMA-617, reference compound]
- LogD [1]: -3.2
- LogP [1]: -2.8

Structure (SMILES): O=C(O)CCC(NC(=O)NC(CCCCNC(=O)CCCCCCCCCCCCCCCCCc1ccc(NC(=O)CN2CCN(CC(=O)O)CCN(CC(=O)O)CCN(CC(=O)O)CC2)cc1)C(=O)O)C(=O)O (stereo not drawn) [^177Lu-PSMA-PhC18, metal not drawn]
- hydrophobicity comparison ([1]; 177Lu-labeled compounds compared with each other): two orders of magnitude more hydrophobic
- LogD [1]: -1.2
- LogP [1]: -0.8

Structure (SMILES): O=C(O)CCC(NC(=O)NC(CCCCNC(=O)CCCCCCCCCCCCCCCCCc1ccc(NC(=O)CN2CCN(CC(=O)O)CCN(CC(=O)O)CCN(CC(=O)O)CC2)cc1)C(=O)O)C(=O)O (stereo not drawn) [^86Y-PSMA-PhC18, metal not drawn]
- clearance from normal organs ([5]; nude mice): Steady clearance from normal organs
- tumor uptake and retention versus 86Y-PSMA-617 ([5]; nude mice, PET/CT): significantly improved
- blood circulation [5, 7]: prolonged blood circulation
- renal clearance [5, 7]: minimal renal clearance
- blood circulation half-life [5, 8]: 15.1 h
- time at which tumor uptake plateaued ([5]; p.i.): 24 h
- tumor uptake at 72 h p.i. relative to 86Y-PSMA-617 and 86Y-PSMA-C12 at 24 h p.i. ([5]; region of interest analysis): five times higher
- blood circulation [3]: prolonged circulation
- excretion route [3]: hepatobiliary excretion
- tumor uptake and retention versus 86Y-PSMA-617 and 86Y-PSMA-C12 (PC3-PIP tumor xenografts [6]; nude mice, i.v., PET/CT): significantly improved
- blood circulation (PC3-PIP tumor xenografts [6]; [7]): prolonged blood circulation
- renal clearance (PC3-PIP tumor xenografts [6]; [7]): minimal renal clearance
- blood circulation half-life (PC3-PIP tumor xenografts [6]; [8]): 11.7 h
- blood circulation half-life (unit not given) (PC3-PIP tumor xenografts [6]; nude mice, region of interest analysis, FIG. 5 legend): 11.7 h
- time at which tumor uptake plateaus (PC3-PIP tumor xenografts [6]; post injection): 24 h
- tissue with highest uptake in ex vivo biodistribution (PC3-PIP tumor xenografts [4]): the tumor shows the highest uptake of all analysed tissues
